Data from patent publication US20260069606A1, “Oxidative Stress and Diabetes Treatment with Cobinamide” (The Regents of the University of California, priority 2022, published 2026).

Key:
[1] = Reaction with superoxide, hypoxanthine-xanthine oxidase-cytochrome c reduction system; type: biochemical; conditions: for Apparent rate constant, reaction with superoxide (O2·^−): second order, hypoxanthine-xanthine oxidase-cytochrome c system, new data of this study
Experimental: FIGS. 1A-1G. Cobinamide Functions as a Superoxide Dismutase Mimetic. FIGS. 1A-1B. Chemical structures of aquohydroxo-cobinamide (FIG. 1A) and hydroxo-cobalamin (FIG. 1B). FIGS. 1C, 1E. Increasing concentrations of Chi(III) (FIG. 1C) or Chi(II) (FIG. 1E) were incubated in a hypoxanthine-xanthine oxidase-cytochrome c-catalase system for measuring O2·^−, with the change in absorbance at 550 nm (ΔAbs) plotted versus time. A no substrate (no hypoxanthine) control was included. FIGS. 1D, 1F. The calculated rate of change of absorbance at 550 nm in the absence of Chi(III) or Chi(II) (Vo) divided by the calculated rate in their presence (v) is plotted against the Chi(III) (FIG. 1D) or Chi(II) (FIG. 1F) concentration, respectively. The slope of the fitted line was used to calculate the apparent rate constant according to the following equation: kCbi=slope×kcytochrome c×[cytochrome c], where kcytochrome c=1.4×10^6 M^−1 s^−1 and [cytochrome c]=70 μM^70. The data shown are the mean of duplicate samples from one experiment, with similar results found in two additional experiments. Dotted lines show 95% confidence intervals. FIG. 1G. A 20 μM solution of Chi(III) in DMSO was scanned from 280 to 600 nm yielding the spectrum shown as a black line. An equimolar amount of […] (KO2) dissolved in dimethyl sulfoxide (DMSO) was added and the solution was scanned immediately, yielding the grey line. […] The experiment was conducted three times with identical results.
Table I. Reaction Rates of Cobinamide (Cbi), Cobalamin, Imisopasem, and MnTBAP with Reactive Oxygen and Nitrogen Species. Reactions of the indicated compounds with O2·^−, ONOO^−, and ·NO are all second order reactions with rate constants in units of M^−1 s^−1. The reactions of Cbi(III) and Cbi(II) with H2O2 are third order with rate constant units of M^−2 s^−1. Chi(II) and cobalamin(II) bind nitric oxide, so a Ka is shown in units of M^−1. For the new data presented in this study, rate constants were measured for O2·^− using a hypoxanthine-xanthine oxidase-cytochrome c system, for H2O2 using a H2O2-specific sensor (World Precision Instruments), and for ONOO^− using a stopped-flow instrument. Published rate constants for Cu/Zn and Mn superoxide dismutases (SOD) and catalase are shown for reference.^a,b Letters and numbers in parenthesis refer to footnotes and references, respectively.
The reaction of cobinamide with O2·^− was studied in two different systems, generating O2·^− using a hypoxanthine-xanthine oxidase system.
The first system contained 100 μM hypoxanthine and 0.1 unit xanthine oxidase in 20 mM sodium phosphate buffer, pH 7.1. The amount of O2·^− was measured by following reduction of ferric-cytochrome c (70 μM) at 550 nm as described previously^65. Catalase was included (32 units per sample), because xanthine oxidase generates both O2·^− and H2O2, and the latter can re-oxidize the ferro-cytochrome c product^34,66. The reaction was followed for 10 min. A no substrate blank lacking hypoxanthine was included.
In both systems, the experiments were conducted in the absence and presence of the indicated concentrations of Cbi(III) or Chi(II) 65.
Catalase was included in the reaction mixture, because the hypoxanthine-xanthine oxidase system also generates H2O2 and the latter can oxidize the ferro-cytochrome c product back to ferric-cytochrome c, thereby interfering with the kinetic measurement^34.

[2] = system: H9c2 rat embryonal cardiomyocytes; assay: Mitochondrial superoxide content, MitoSOX Red fluorescence; type: cell-based
Experimental: FIGS. 3A-3H. […] FIGS. 3A-3B. […] FIG. 3A. […] FIG. 3B. […] FIGS. 3C-3D. […] FIG. 3D. […] FIGS. 3E-3F. […] FIG. 3E. Representative blots are shown. […] FIG. 3F. […] FIG. 3G. […] FIG. 3H.
H9c2 cells were plated on glass cover slips in 24 well dishes, and 16 h later the medium was changed to phenol red-free DMEM supplemented with 20 mM Hepes, 0.1% fetal bovine serum, and 0.5% bovine serum albumin. […] MitoSOX Red is a dihydroethidium derivative containing triphenyl-phosphonium, which localizes it to respiring mitochondria. Its reaction with O2·^− yields 2-hydroxy-mitoethidium (2-OH-Mito-E″), whereas its reaction with other oxidative species yields mitoethidium (Mito-E^+)^67. These two oxidative derivatives have overlapping fluorescence spectra, but they can be distinguished by high performance liquid chromatography (HPLC)^68. Rotenone increased 2-OH-Mito-E^+ about two-fold, without increasing Mito-E^+. Thus, any increased fluorescence observed on treating cells with rotenone could be ascribed to an increase in 2-OH-Mito-E^+, and decreased fluorescence by an anti-oxidant in rotenone-treated cells was likely from a decrease in 2-OH-Mito-E^+.
The cells were then washed once with PBS, placed back in the DMEM experimental medium, and incubated with the indicated drugs for 30 min. At the end of the incubation period, nuclei of both the MitoSOX Red- and JC-1-treated cells were stained with […] 4′,6-diamidino-2-phenyl-indole (DAPI) for 3 min, washed once with PBS, and returned to the DMEM experimental medium. The cover slips were removed from the wells, mounted in the DMEM experimental medium, and red (MitoSOX Red and JC-1 aggregates), green (JC-1 monomers), and blue (DAPI) fluorescence intensity was assessed using a Keyence BZ-X700 fluorescence microscope at the following paired excitation/emission wavelengths, respectively: 560/630, 490/525, and 360/460 nm.
To assess if cobinamide reduces oxidative stress in cells and to compare its […] efficacy to that of cobalamin, imisopasem, and MnTBAP, several sets of experiments were performed. First, whether cobinamide reduces mitochondrial-generated O2·^− was evaluated using the fluorescent probe MitoSOX Red. H9c2 rat embryonal cardiomyocytes were treated with rotenone, an inhibitor of complex I, to increase mitochondrial O2·^−. […] Monitoring the UV-visible spectrum of cobinamide is a sensitive means to assess ligand binding^38.

D. melanogaster = assay: Survival of fruit flies during paraquat poisoning; type: in vivo; conditions: 20 mM paraquat with 0.8 mM drug in food, over 7 d
Experimental: The number of live flies was counted each day for 7 d. The experiment was repeated seven times, for a total of 70 flies per condition. The percent surviving flies was calculated; error bars represent standard deviations and are shown in one direction only for sake of clarity. […] Chi, cobinamide in Panel A and histidyl-cobinamide in Panels B-K; Imp, imisopasem; MnTP, MnTBAP; CbL, cobalamin; DNPH, 2,4-dinitrophenylhydrazine; ND, non-diabetic; D, diabetic; Veh, vehicle.
To test cobinamide in a whole animal, D. melanogaster was selected for initial studies, and oxidative stressed was increased in the files by administering paraquat in their food. Cobinamide was again compared to imisopasem, MnTBAP, and hydroxocobalamin, all administered in food.

[3] = mouse, in vivo
Experimental: It seemed possible, therefore, that the cobinamide administered to the mice could have increased their blood pressure, since ·NO is a potent vasodilator. Because diabetes can increase blood pressure, these studies were performed on a parallel set of non-diabetic mice of the same strain and sex and using the same concentration of histidyl-cobinamide in the drinking water as in the above-described studies.

[4] = mice, same amount of cobinamide for six months; cited from earlier work

Q: With `C/C1=C2/[N-][C@H]([C@H](CC(N)=O)[C@@]2(C)CCC(=O)NC[C@@H](C)O)[C@]2(C)N=C(/C(C)=C3N=C(/C=C4N=C1[C@@H](CCC(N)=O)C\4(C)C)[C@@H](CCC(N)=O)[C@]\3(C)CC(N)=O)[C@@H](CCC(N)=O)[C@]2(C)CC(N)=O.[Co+3]` [cobinamide, aquohydroxo-cobinamide] as the compound, how does the “Apparent rate constants, reaction with O2·^−” value ([1]; hypoxanthine-xanthine oxidase-cytochrome c reduction system, catalase included, exponent shared in the sentence) read?
A: Its value is 1.12e+08 M⁻¹ s⁻¹.

Q: And the “Apparent rate constant, reaction with superoxide (O2·^−)” value ([1]; listed as Cbi(III))?
A: The value was 1.1e+08 M⁻¹ s⁻¹.

Q: What about the “Apparent rate constant, reaction with superoxide (O2·^−)” value ([1]; listed as Chi(III)) of the same compound?
A: The value was 1.12e+08 M⁻¹ s⁻¹.

Q: And the “MitoSOX red fluorescence in rotenone-treated cells” value ([2]; H9c2, 5 μM rotenone 30 min, drugs at 2.5 μM)?
A: The value was “markedly reduced fluorescence”.

Q: What about the “MitoSOX red fluorescence, drug alone” value ([2]; H9c2, vehicle-treated cells without rotenone, 2.5 μM) of the same compound?
A: Its value is “no change”.

Q: And the “Mortality of paraquat-exposed flies” value (D. melanogaster)?
A: Its value is less than 30%.

Q: And the Blood pressure [3]?
A: The Blood pressure was “no change in blood pressure”.

Q: And the Hematological parameters [4]?
A: The Hematological parameters was “did not affect hematological parameters”.
